Data: publication PMC6804419, “Synthesis and Inhibitory Effect of Some Indole‐Pyrimidine Based Hybrid Heterocycles on α‐Glucosidase and α‐Amylase as Potential Hypoglycemic Agents” (ChemistryOpen, 2019)

Tests used:
[1] = target: T1, α-amylase from Aspergillus oryzae (Aspergillus oryzae, UniProt P0C1B3); experiment: α-Amylase assay; format: biochemical
T1 construct: purchased Sigma Aldrich
Method: (§1) α‐glucosidase type 1 from baker‘s yeast (G5003; Sigma‐Aldrich, St. Louis, MO, USA), p‐nitrophenyl α‐D‐glucopyranoside (N1377, Sigma‐Aldrich), sodiumphosphatemonobasic (S3139, Sigma‐Aldrich), sodiumphosphatedibasic (S5136, Sigma‐Aldrich), andacarbose (A8980, Sigma‐Aldrich), DMSO (Dimethylsulfoxide), α‐amylase from Aspergillus oryzae (Sigma Aldrich), starch, DNS (3, 5‐dinitrosalicylic acid), sodiumpotassiumtartratetetrahydrate.
Briefly, 250 μL (0.4 mg/mL) was preincubated with 250 μL of α‐amylase solution for 10 min at 25 °C in one set of tubes. In another set of tubes α‐amylase was preincubated with 250 μL of phosphate buffer (pH 6.9). 250 μL of starch solution at increasing concentrations (0.2–1 % (w/v)) was added to both sets of reaction mixtures to start the reaction. The mixture was then incubated for 10 min at 25 °C and then boiled for 15 min after the addition of 250 μL of DNS to stop the reaction. The amount of reducing sugars released was determined spectrophotometrically using a maltose standard curve and converted to reaction velocities.
(§2) The inhibitory concentration 50 % (IC50) values were determined from the plots of percent inhibition versus log inhibitor concentration and calculated by logarithmic regression analysis from the mean inhibitory values.

[2] = target: T2, α-glucosidase type 1 from baker's yeast (Saccharomyces cerevisiae, UniProt P53341); experiment: α-Glucosidase inhibition assay; format: biochemical
T2 construct: purchased Sigma-Aldrich G5003
T2 sequence (P53341 whole entry): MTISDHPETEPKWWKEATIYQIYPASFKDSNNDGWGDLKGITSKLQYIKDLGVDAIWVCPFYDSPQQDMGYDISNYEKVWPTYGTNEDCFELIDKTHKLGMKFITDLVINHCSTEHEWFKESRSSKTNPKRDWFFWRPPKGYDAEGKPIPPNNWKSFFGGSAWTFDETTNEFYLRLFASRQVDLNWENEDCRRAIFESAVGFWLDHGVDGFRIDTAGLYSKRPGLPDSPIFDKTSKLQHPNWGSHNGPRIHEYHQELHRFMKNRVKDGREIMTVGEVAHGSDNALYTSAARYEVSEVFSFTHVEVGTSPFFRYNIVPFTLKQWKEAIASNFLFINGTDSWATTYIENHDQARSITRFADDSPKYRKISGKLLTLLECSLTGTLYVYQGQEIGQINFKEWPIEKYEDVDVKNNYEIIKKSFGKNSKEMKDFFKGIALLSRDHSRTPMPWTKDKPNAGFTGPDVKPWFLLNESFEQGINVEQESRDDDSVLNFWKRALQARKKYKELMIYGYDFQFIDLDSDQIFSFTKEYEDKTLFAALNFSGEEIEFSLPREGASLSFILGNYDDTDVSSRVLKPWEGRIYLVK
Description: as §1
Concentration of α‐glucosidase and substrate. Sodium phosphate buffer (0.1 M) was adjusted by 0.1 N HCl to pH 7.0 with a pH meter (Thermo Fisher Scientific Inc., Waltham, MA, USA). p‐Nitrophenyl α‐D‐glucopyranoside (10 mM) and α‐glucosidase solutions (1 U/ml) were solubilized in 0.1 M sodium phosphate buffer (pH 7.0). All the reagents were manufactured shortly before use and warmed to 37 °C in a water bath. Sodium phosphate buffer (0.1 M, 158 μl per well) was added to a 96‐well plate. α‐Glucosidase (20 μl) and 2 μl of sample were added to 20 μl of p‐nitrophenyl α‐D‐glucopyranoside. In the 200‐μl final reaction volume (0.02 U/well, 0.1 U/ml) the substrate concentration was adjusted to […]. The background signal due to the sample color was measured at 405 nm with the PerkinElmer Wallac Victor3 spectrophotometer (PerkinElmer, Waltham, MA, USA) prior to adding the enzyme. Immediately following α‐glucosidase addition, absorbance was measured at 405 nm 8 times at 1‐min intervals.16
as §2

Compound	IC50 [1] [µM]	melting point [°C]	IC50 [2] [µM]
CCn1cc(C(=O)CC(c2ccc(F)cc2)C2C(=O)N(C)C(=O)N(C)C2=O)c2ccccc21 (centres unmarked) [5g, 5‐(3‐(1‐Ethyl‐1H‐indol‐3‐yl)‐1‐(4‐fluorophenyl)‐3‐oxopropyl)‐1,3‐dimethylpyrimidine‐2,4,6(1H,3H,5H)‐trione]	86.42 ± 0.22	185 to 186	69.75 ± 0.01
CCn1cc(C(=O)CC(c2ccc([N+](=O)[O-])cc2)C2C(=O)N(C)C(=O)N(C)C2=O)c2ccccc21 (centres unmarked) [5q, 5‐(3‐(1‐Ethyl‐1H‐indol‐3‐yl)‐1‐(4‐nitrophenyl)‐3‐oxopropyl)‐1,3‐ dimethylpyrimidine‐2,4,6(1H,3H,5H)‐trione]	63 ± 0.61	198 to 199	31.12 ± 0.11
CCn1cc(C(=O)CC(c2ccc(Cl)cc2)C2C(=O)N(C)C(=O)N(C)C2=O)c2ccccc21 (centres unmarked) [5c, 5‐(1‐(4‐Chlorophenyl)‐3‐(1‐ethyl‐1H‐indol‐3‐yl)‐3‐oxopropyl)‐1,3‐dimethylpyrimidine‐2,4,6(1H,3H,5H)‐trione]	71.24 ± 0.2	166 to 167	49.75 ± 0.01
CCn1cc(C(=O)CC(c2cccc(C)c2)C2C(=O)N(C)C(=O)N(C)C2=O)c2ccccc21 (centres unmarked) [5i, 5‐(3‐(1‐Ethyl‐1H‐indol‐3‐yl)‐3‐oxo‐1‐(m–tolyl)propyl)‐1,3‐dimethylpyrimidine‐2,4,6(1H,3H,5H)‐trione]	95.25 ± 0.1	125 to 126	73.15 ± 0.12
CCn1cc(C(=O)CC(c2cccs2)C2C(=O)N(C)C(=O)N(C)C2=O)c2ccccc21 (centres unmarked) [5l, 5‐(3‐(1‐Ethyl‐1H‐indol‐3‐yl)‐3‐oxo‐1‐(thiophen‐2‐yl)propyl)‐1,3‐dimethylpyrimidine‐2,4,6(1H,3H,5H)‐trione]	35.4 ± 0.6	154 to 155	22.3 ± 0.48
CCn1cc(C(=O)CC(c2cccc(Br)c2)C2C(=O)N(C)C(=O)N(C)C2=O)c2ccccc21 (centres unmarked) [5j, 5‐(1‐(3‐Bromophenyl)‐3‐(1‐ethyl‐1H‐indol‐3‐yl)‐3‐oxopropyl)‐1,3‐dimethylpyrimidine‐2,4,6(1H,3H,5H)‐trione]	86.42 ± 0.22	130 to 131	77.05 ± 0.04
CCn1cc(C(=O)CC(c2ccc3ccccc3c2)C2C(=O)N(C)C(=O)N(C)C2=O)c2ccccc21 (centres unmarked) [5o, 5‐(3‐(1‐Ethyl‐1H‐indol‐3‐yl)‐1‐(naphthalen‐2‐yl)‐3‐oxopropyl)‐1,3‐dimethylpyrimidine‐2,4,6(1H,3H,5H)‐trione]	21.7 ± 0.82		13.02 ± 0.01
CCn1cc(C(=O)CC(c2cccc(F)c2)C2C(=O)N(C)C(=O)N(C)C2=O)c2ccccc21 (centres unmarked) [5h, 5‐(3‐(1‐Ethyl‐1H‐indol‐3‐yl)‐1‐(3‐fluorophenyl)‐3‐oxopropyl)‐1,3‐dimethylpyrimidine‐2,4,6(1H,3H,5H)‐trione]	89.45 ± 0.44	188 to 189	61.1 ± 0.42
CCn1cc(C(=O)CC(c2ccco2)C2C(=O)N(C)C(=O)N(C)C2=O)c2ccccc21 (centres unmarked) [5m, 5‐(3‐(1‐Ethyl‐1H‐indol‐3‐yl)‐1‐(furan‐2‐yl)‐3‐oxopropyl)‐1,3‐dimethylpyrimidine‐2,4,6(1H,3H,5H)‐trione]	82.15 ± 0.5	188 to 189	64.35 ± 0.08
CCn1cc(C(=O)CC(c2cc(OC)c(OC)c(OC)c2)C2C(=O)N(C)C(=O)N(C)C2=O)c2ccccc21 (centres unmarked) [5n, 5‐(3‐(1‐Ethyl‐1H‐indol‐3‐yl)‐3‐oxo‐1‐(3,4,5‐trimethoxyphenyl)propyl)‐1,3‐dimethylpyrimidine‐2,4,6(1H,3H,5H)‐trione]	93.25 ± 0.1	170 to 171	53.15 ± 0.12
CCn1cc(C(=O)CC(c2ccc(C)cc2)C2C(=O)N(C)C(=O)N(C)C2=O)c2ccccc21 (centres unmarked) [5b]	80.17 ± 0.05	155 to 156	53.15 ± 0.12
CCn1cc(C(=O)CC(c2ccc(Br)cc2)C2C(=O)N(C)C(=O)N(C)C2=O)c2ccccc21 (centres unmarked) [5f, 5‐(1‐(4‐Bromophenyl)‐3‐(1‐ethyl‐1H‐indol‐3‐yl)‐3‐oxopropyl)‐1,3‐dimethylpyrimidine‐2,4,6(1H,3H,5H)‐trione]	78.25 ± 0.1	159 to 160	53.15 ± 0.12
CCn1cc(C(=O)CC(c2ccc(C(F)(F)F)cc2)C2C(=O)N(C)C(=O)N(C)C2=O)c2ccccc21 (centres unmarked) [5k, 5‐(3‐(1‐Ethyl‐1H‐indol‐3‐yl)‐3‐oxo‐1‐(4‐(trifluoromethyl)phenyl)propyl)‐1,3‐dimethylpyrimidine‐2,4,6(1H,3H,5H)‐trione]	47.11 ± 0.09	168 to 169	20.5 ± 0.44
CCn1cc(C(=O)CC(c2ccc(Cl)cc2Cl)C2C(=O)N(C)C(=O)N(C)C2=O)c2ccccc21 (centres unmarked) [5d, 5‐(1‐(2,4‐Dichlorophenyl)‐3‐(1‐ethyl‐1H‐indol‐3‐yl)‐3‐oxopropyl)‐1,3‐dimethylpyrimidine‐2,4,6(1H,3H,5H)‐trione]	96.42 ± 0.22	149 to 150	58.21 ± 0.09
CCn1cc(C(=O)CC(c2ccc(OC)cc2)C2C(=O)N(C)C(=O)N(C)C2=O)c2ccccc21 (centres unmarked) [5e, 5‐(3‐(1‐Ethyl‐1H‐indol‐3‐yl)‐1‐(4‐methoxyphenyl)‐3‐oxopropyl)‐1,3‐dimethylpyrimidine‐2,4,6(1H,3H,5H)‐trione]	88.45 ± 0.32	128 to 129	61.4 ± 0.78
CN1C(=O)C(C(CC(=O)c2cn(C)c3ccccc23)c2ccccc2)C(=O)N(C)C1=O (centres unmarked) [5a, 1,3‐Dimethyl‐5‐(3‐(1‐methyl‐1H‐indol‐3‐yl)‐3‐oxo‐1‐phenylpropyl)pyrimidine‐2,4,6(1H,3H,5H)‐trione]	93.25 ± 0.1	185 to 186	65.14 ± 0.17
